The values that follow are results of earlier work, collected in US20240065995A1, “INJECTABLE METHODS TO TREAT DEFICIENCIES IN GLUTATHIONE METABOLISM AND HOMOCYSTINURIA” (priority 2022, published 2024).

The conditions of the data set: glutathione in the bloodstream; background statement.

The structures appear in SMILES notation.

Take `N[C@@H](CCC(=O)N[C@@H](CS)C(=O)NCC(=O)O)C(=O)O` [Glutathione]: the “half-life in the bloodstream” value was “under 2 minutes”.
